Data taken from ChEMBL document CHEMBL1135220, “Novel, potent non-covalent thrombin inhibitors incorporating p(3)-lactam scaffolds” (Bioorg Med Chem Lett, 2002).

Legend:
[1] = Oral bioavailability in dog (fasted); format: ADME, organism-based, Canis lupus familiaris; conditions: in vivo
Trypsin = Trypsin (Homo sapiens, UniProt P07477+P07478+P35030); assay: Inhibitory constant against trypsin determined in Vitro; format: protein assay
Coagulation factor X [2] = biological target: T1, Coagulation factor X (Homo sapiens, UniProt P00742); assay: Inhibitory constant against human Coagulation factor Xa determined in Vitro
Prothrombin = Prothrombin (Homo sapiens, UniProt P00734); assay: Inhibitory constant against human thrombin (FIIa) determined in vitro
[3] = Half life in dogs at 1 mg/kg oral dosing; 35-100 min; format: ADME, organism-based, Canis lupus familiaris; parameters: dose 1 mg/kg, route oral; conditions: dog, in vivo
[4] = Maximum plasma concentration was determined in dogs at 1 mg/kg oral dosing; 0.05-0.2 ug/mL; format: ADME, organism-based, Canis lupus familiaris; parameters: dose 1 mg/kg, route oral; conditions: dog
[5] = Area Under Curve for the compound was determined in dogs at 1 mg/kg oral dosing; 25-50 ug min/mL; format: ADME, organism-based, Canis lupus familiaris; parameters: dose 1 mg/kg, route oral; conditions: dog, in vivo
Coagulation factor X [6] = biological target: T1, Coagulation factor X; assay: Inhibitory constant against human Coagulation factor Xa determined in Vitro; Inact. means Inactive
Serine protease 1 = Serine protease 1 (Homo sapiens, UniProt P07477); assay: Inhibitory constant against trypsin determined in Vitro; Inact. means Inactive
[7] = Maximum plasma concentration was determined as in dogs at 1 mg/kg oral dosing Cmax; 0.05-0.2 ug/mL; format: ADME, organism-based, Canis lupus familiaris; parameters: dose 1 mg/kg, route oral; conditions: dog

T1 sequence (P00742 41-179 limits assumed): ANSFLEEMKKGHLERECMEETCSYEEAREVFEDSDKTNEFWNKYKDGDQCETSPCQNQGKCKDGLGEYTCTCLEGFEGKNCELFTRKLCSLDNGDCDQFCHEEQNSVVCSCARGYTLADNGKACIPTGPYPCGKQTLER
T1 sequence (P00742 235-488 limits assumed): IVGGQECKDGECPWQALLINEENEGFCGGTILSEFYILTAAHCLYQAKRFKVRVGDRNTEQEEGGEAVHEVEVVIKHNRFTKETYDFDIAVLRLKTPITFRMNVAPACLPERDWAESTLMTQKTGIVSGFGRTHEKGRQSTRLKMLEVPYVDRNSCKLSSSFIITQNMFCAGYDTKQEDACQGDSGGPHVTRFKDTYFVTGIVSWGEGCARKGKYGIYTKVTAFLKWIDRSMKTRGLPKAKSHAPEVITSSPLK
Serine protease 1, sequence (P07477 whole entry): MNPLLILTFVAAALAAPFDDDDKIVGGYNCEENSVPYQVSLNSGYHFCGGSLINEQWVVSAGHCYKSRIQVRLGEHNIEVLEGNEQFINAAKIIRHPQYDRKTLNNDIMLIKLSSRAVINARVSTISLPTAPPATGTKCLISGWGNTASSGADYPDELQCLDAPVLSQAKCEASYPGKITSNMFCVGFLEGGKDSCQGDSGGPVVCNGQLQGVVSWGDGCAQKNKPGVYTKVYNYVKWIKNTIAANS

Compound	bioavailability [1]	Ki (Trypsin)	Ki (Coagulation factor X [2])	Ki (Prothrombin)	half-life [3]	Cmax [4]	AUC [5]	Ki (Coagulation factor X [6])	Ki (Serine protease 1)	Cmax [7]
COC(=O)c1ccccc1CS(=O)(=O)N[C@H]1CCCCN(CC(=O)N[C@H](C=O)CCCNC(=N)N)C1=O	67%	16 nM								
COC(=O)c1ccccc1CS(=O)(=O)N[C@H]1CCCCN(CC(=O)N[C@@H](CCCNC(=N)N)C(=O)O)C1=O			93 nM	0.95 nM						
N=C(N)NCCC[C@@H](C=O)NC(=O)CN1CCCC[C@H](NS(=O)(=O)Cc2ccccc2)C1=O	66%	18 nM								
N=C(N)NCCC[C@H](NC(=O)CN1CCCC[C@H](NS(=O)(=O)Cc2ccccc2)C1=O)C(=O)O			40 nM	0.54 nM						
N=C(N)c1ccc(CC(=O)CN2CCCC[C@H](NS(=O)(=O)c3ccccc3)C2=O)cc1		8.3 nM	> 338 nM	19.4 nM	~35 min	~50 ng/mL	~417 ng·h/mL			
N=C(N)c1ccc(CC(=O)CN2CCCC[C@H](NS(=O)(=O)c3ccc4c(c3)CCO4)C2=O)c(F)c1		7.6 nM	> 338 nM	29.8 nM	~35 min	~50 ng/mL	~417 ng·h/mL			
N=C(N)c1ccc(CC(=O)CN2CCCC[C@H](NS(=O)(=O)c3ccc4c(c3)CCO4)C2=O)s1		5.9 nM	52.7 nM	0.6 nM	~35 min	~50 ng/mL	~417 ng·h/mL			
O=C(Cc1ccc2[nH]ncc2c1)CN1CCCC[C@H](NS(=O)(=O)c2ccc3c(c2)CCO3)C1=O				283 nM	~35 min	~50 ng/mL	~417 ng·h/mL	Not Active	Not Active	
COc1ccc(S(=O)(=O)N[C@H]2CCCCN(CC(=O)CC3CCN(C(=N)N)CC3)C2=O)cc1OC		> 1678 nM	> 338 nM	85.7 nM	~35 min	~50 ng/mL	~417 ng·h/mL			
N=C(N)N1CCC(CC(=O)[C@@H]2Cc3cccc4c3N2C(=O)[C@@H](NS(=O)(=O)c2ccc3c(c2)CCO3)CC4)CC1		2.5 nM	49.2 nM	10.8 nM	~35 min		~417 ng·h/mL			~50 ng/mL
N[C@H]1CC[C@H](CC(=O)CN2CCCC[C@H](NS(=O)(=O)c3ccc4c(c3)CCO4)C2=O)CC1		> 1678 nM		53.2 nM	~35 min	~50 ng/mL	~417 ng·h/mL	Not Active		
N/C(=N\O)c1ccc(CC(=O)CN2CCCC[C@H](NS(=O)(=O)c3ccc4c(c3)CCO4)C2=O)cc1		80.5 nM		240 nM	~35 min	~50 ng/mL	~417 ng·h/mL	Not Active		
COc1ccc(OC)c(S(=O)(=O)N[C@H]2CCCCN(CC(=O)Cc3ccc(C(=N)N)cc3)C2=O)c1		35.2 nM	> 338 nM	9 nM	~35 min	~50 ng/mL	~417 ng·h/mL			
N=C(N)N1CCC(CC(=O)CN2CCCC[C@H](NS(=O)(=O)c3ccc4c(c3)CCO4)C2=O)CC1		872.5 nM		23.8 nM	~35 min	~50 ng/mL	~417 ng·h/mL	Not Active		
N[C@H]1CC[C@H](CC(=O)CN2CCCC[C@H](NS(=O)(=O)Cc3ccccc3)C2=O)CC1				195 nM	~35 min	~50 ng/mL	~417 ng·h/mL	Not Active	Not Active	
Cc1nc(N)ccc1CC(=O)CN1CCCC[C@H](NS(=O)(=O)Cc2ccccc2)C1=O		1678 nM		92.9 nM	~35 min	~50 ng/mL	~417 ng·h/mL	Not Active		
N=C(N)c1ccc(CC(=O)CN2CCCC[C@H](NS(=O)(=O)Cc3ccccc3)C2=O)cc1		84.6 nM	315 nM	19.4 nM	~35 min	~50 ng/mL	~417 ng·h/mL			
N/C(=N\O)c1ccc(CC(=O)CN2C(=O)[C@@H](NS(=O)(=O)c3ccc4c(c3)CCO4)CCc3ccccc32)cc1				> 397 nM	~35 min	~50 ng/mL	~417 ng·h/mL	Not Active	Not Active	
N=C(N)c1ccc(CC(=O)CN2C(=O)[C@@H](NS(=O)(=O)c3ccc4c(c3)CCO4)CCc3ccccc32)cc1		19.5 nM	> 338 nM	14.4 nM	~35 min	~50 ng/mL	~417 ng·h/mL			
COc1ccc(OC)c(S(=O)(=O)N[C@H]2CCCCN(CC(=O)CC3CCN(C(=N)N)CC3)C2=O)c1				167 nM	~35 min	~50 ng/mL	~417 ng·h/mL	Not Active	Not Active	
COc1ccc(S(=O)(=O)N[C@H]2CCCCN(CC(=O)Cc3ccc(C(=N)N)cc3)C2=O)cc1OC		11.6 nM	> 338 nM	13.3 nM	~35 min	~50 ng/mL	~417 ng·h/mL			
Cc1nc(N)ccc1CC(=O)CN1CCC[C@H](NS(=O)(=O)Cc2ccccc2)C1=O		> 1678 nM		> 397 nM	~35 min	~50 ng/mL	~417 ng·h/mL	Not Active		
N=C(N)N1CCC(CC(=O)CN2CCCC[C@H](NS(=O)(=O)c3ccccc3)C2=O)CC1		1678 nM	> 338 nM	71.4 nM	~35 min	~50 ng/mL	~417 ng·h/mL			
N=C(N)c1ccc(CC(=O)CN2CCCC[C@H](NS(=O)(=O)c3ccc4c(c3)CCO4)C2=O)cc1		3.2 nM	> 338 nM	6.2 nM	~35 min	~50 ng/mL	~417 ng·h/mL			
N=C(N)c1ccc(CC(=O)CN2CCCC[C@H](NS(=O)(=O)c3ccc4ccccc4c3)C2=O)cc1		12.3 nM	> 338 nM	163 nM	~35 min	~50 ng/mL	~417 ng·h/mL			
Cc1nc(N)ccc1CC(=O)CN1CCCC[C@H](NS(=O)(=O)c2ccc3c(c2)CCO3)C1=O		1678 nM	> 338 nM	39.5 nM	~35 min	~50 ng/mL	~417 ng·h/mL			
N=C(N)N1CCC(CC(=O)CN2C(=O)[C@@H](NS(=O)(=O)c3ccc4c(c3)CCO4)CCc3ccccc32)CC1				61 nM	~25 min	~50 ng/mL	~417 ng·h/mL	Not Active	Not Active	
